Earlier results, collected in patent US10427251B2, “Fine silver particle dispersion, fine silver particles, and method for producing same” (BANDO CHEMICAL INDUSTRIES, LTD., priority 2014, dated 2019).

Conditions: n-octanol/water

Going from `CCCCCCN` [hexylamine] to `CCCCN` [butylamine], the “partition coefficient log P” value falls from 2.1 to 1.0.

Compared with `COCCN` [2-methoxyethylamine], `COCCCN` [3-methoxypropylamine] is higher in “partition coefficient log P” value: −0.9 for the first, −0.5 for the second.

Compared with `CCOCCCN` [3-ethoxypropylamine], `CCCN` [propylamine] is higher in “partition coefficient log P” value: −0.1 for the first, 0.5 for the second.

Compared with `CCN` [ethylamine], `NCCCN` [1,3-propanediamine] is lower in “partition coefficient log P” value: −0.3 for the first, −1.4 for the second.

In the case of `NCCCCCO` [pentanolamine], the “partition coefficient log P” value is given as −0.3.
